Where only a bound is given, the exact number is not on record here.

The record followed here is US10301280B2 (Plexxikon Inc., priority 2012, dated 2019).

This assay has as its system BaF3-FL KIT D816V or BaF3-FL KIT V560G/D816V cell line. As to the kind of experiment: Cell-based assays of c-Kit mutant kinase activity (cell growth, ATPlite). The following applies: at least one of the c-kit cell assays of Example 26. How it is done: The c-Kit mutant D816V inhibitors were assessed using an engineered BaF3-FL KIT D816V or BaF3-FL KIT V560G/D816V cell line. The BaF3-FL KIT D816V cell lines were created by introduction of KIT mutant (D816V) full length constructs that render the cells dependent on the introduced kinase for growth. Inhibitors of c-Kit mutant D816V kinase reduce or eliminate the mediated c-kit mutant D816V kinase activation, resulting in reduced cell proliferation of the BaF3-FL Kit mutant D816V cells. This inhibition is measured by the effect of compound concentration on cell growth to assess IC50 values. BaF3-FL KIT D816V cells were seeded at 1×10^4 cells per well of a 96 well cell culture plate in 50 μl of cell culture medium of RPMI Medium 1X (Invitrogen #11875-093) supplemented with 10% FBS (Invitrogen #10438), 1% Non Essential Amino Acids(Invitrogen #11140), 1% Penicillin Streptomycin (Invitrogen #15140), 1% L-Glutamine (Invitrogen #25030-081). Compounds were dissolved in DMSO at a concentration of 5 mM and were serially diluted 1:3 for a total of eight points and added to the cells to a final maximum concentration of 10 μM in 100 μl cell culture medium (final concentration 0.2% DMSO). Cells were also treated with Dasatinib as a positive control. The cells were incubated at 37° C., 5% CO2 for three days. ATPlite Buffer (Perkin Elmer #6016739) and substrate were equilibrated to room temperature, and enzyme/substrate Recombinant Firefly Luciferase/D-Luciferin was reconstituted. The cell plates were equilibrated to room temperature for 30 minutes, then lysed by addition of 25 uL per well of the ATPlite Reagent. The plate was mixed for 5 minutes on a plate shaker to lyse the cells. The plates were read on a Tecan Safire using Luminescence protocol modified to read 0.1 s per well. The luminescence reading assesses the ATP content, which correlates directly with cell number such that the reading as a function of compound concentration is used to determine the IC50 value.
Plasmids P75635 and P75565 were engineered for mammalian cell expression. In both plasmids, full-length human v-kit Hardy-Zuckerman 4 feline sarcoma viral oncogene homolog gene (NCBI accession NM_000222, KIT, residues M1-V976) was subcloned into the pCI-Neo vector (Promega E1841). Plasmid P75635 contains the mutation of residue Aspartic acid 816 to Valine. Plasmid P75565 contains the double mutation of residues Valine 560 to Glycine and Aspartic acid 816 to Valine. The pCI-neo Mammalian Expression Vector carries the human cytomegalovirus (CMV) immediate-early enhancer/promoter region to promote constitutive expression of KIT and contains the neomycin phosphotransferase gene, a selectable marker.
It is understood that the results of these assays may vary as assay conditions are varied. Inhibition levels determined under the conditions described herein represent a relative activity for the compounds tested under the specific conditions employed. The cell based assays are likely to show variability due to the complexity of the system and the sensitivity thereof to any changes in the assay conditions. […] In some instances, the compounds were not tested in all of the assays, or assay results were not valid.
(In general: In ATP-based viability assays light output follows the ATP content of the culture.)
In the case of `OC(c1cccnc1)c1cnc2[nH]c(-c3ccccc3)cc2c1` (stereo not shown) [P-2001, (2-phenyl-1H-pyrrolo[2,3-b]pyridin-5-yl)-(3-pyridyl)methanol], the IC50 was < 10 µM. In the case of `O=C(c1cccnc1)c1cnc2[nH]c(-c3ccccc3)cc2c1` [P-2002, (2-phenyl-1H-pyrrolo[2,3-b]pyridin-5-yl)-(3-pyridyl)methanone] it was < 10 µM. Regarding `O=C(Nc1cc[nH]n1)c1cnc2[nH]c(-c3ccccc3)cc2c1` [P-2004, 2-phenyl-N-(1H-pyrazol-3-yl)-1H-pyrrolo[2,3-b]pyridine-5-carboxamide], the half-inhibitory concentration (IC50) is < 10 µM. Turning to `CCOC(=O)CCNC(=O)Nc1cnc2[nH]c(-c3ccccc3)cc2c1` [P-2006], the IC50 was < 10 µM. Consider `Cc1c(-c2ccccc2)n[nH]c1C(=O)Nc1cnc2[nH]c(-c3ccccc3)cc2c1` [P-2008, 4-methyl-3-phenyl-N-(2-phenyl-1H-pyrrolo[2,3-b]pyridin-5-yl)-1H-pyrazole-5-carboxamide], for which the half-maximal inhibitory concentration (IC50) was < 10 µM. To `O=C(Nc1cnc2[nH]c(-c3ccccc3)cc2c1)c1cccnn1` [P-2014, N-(2-phenyl-1H-pyrrolo[2,3-b]pyridin-5-yl)pyridazine-3-carboxamide] belongs < 10 µM; to `Cc1cccc(Cl)c1C(=O)Nc1cnc2[nH]c(-c3ccc(F)cc3)cc2c1` [P-2022, 2-chloro-N-[2-(4-fluorophenyl)-1H-pyrrolo[2,3-b]pyridin-5-yl]-6-methyl-benzamide], < 10 µM. In the case of `CCc1n[nH]c(C(=O)Nc2cnc3[nH]c(-c4ccc(F)cc4)cc3c2)c1C` [P-2028, 3-ethyl-N-[2-(4-fluorophenyl)-1H-pyrrolo[2,3-b]pyridin-5-yl]-4-methyl-1H-pyrazole-5-carboxamide] it was < 10 µM; in that of `O=C(Nc1cnc2[nH]c(-c3ccc(F)cc3)cc2c1)c1ncn[nH]1` [P-2035, N-[2-(4-fluorophenyl)-1H-pyrrolo[2,3-b]pyridin-5-yl]-1H-1,2,4-triazole-5-carboxamide], < 10 µM; in that of `Cc1n[nH]c(C(=O)Nc2cnc3[nH]c(-c4ccnc(N5CCOCC5)c4F)cc3c2)c1C` [P-2082, N-[2-(3-fluoro-2-morpholino-4-pyridyl)-1H-pyrrolo[2,3-b]pyridin-5-yl]-3,4-dimethyl-1H-pyrazole-5-carboxamide], < 10 µM. As to `Cc1n[nH]c(C(=O)Nc2cnc3[nH]c(-c4cnn(CC(C)C)c4)cc3c2)c1C` [P-2083, N-[2-(1-isobutylpyrazol-4-yl)-1H-pyrrolo[2,3-b]pyridin-5-yl]-3,4-dimethyl-1H-pyrazole-5-carboxamide], the IC50 is < 10 µM. To `Cc1n[nH]c(C(=O)Nc2cnc3[nH]c(-c4cnn(C)c4C)cc3c2)c1C` [P-2084, N-[2-(1,5-dimethylpyrazol-4-yl)-1H-pyrrolo[2,3-b]pyridin-5-yl]-3,4-dimethyl-1H-pyrazole-5-carboxamide] belongs < 10 µM; to `Cc1n[nH]c(C(=O)Nc2cnc3[nH]c(-c4ccc(C(=O)N(C)C)cc4)cc3c2)c1C` [P-2085, N-[2-[4-(dimethylcarbamoyl)phenyl]-1H-pyrrolo[2,3-b]pyridin-5-yl]-3,4-dimethyl-1H-pyrazole-5-carboxamide], < 10 µM; to `Cc1n[nH]c(C(=O)Nc2cnc3[nH]c(-c4cccc(OC(F)(F)F)c4)cc3c2)c1C` [P-2086, 3,4-dimethyl-N-[2-[3-(trifluoromethoxy)phenyl]-1H-pyrrolo[2,3-b]pyridin-5-yl]-1H-pyrazole-5-carboxamide], < 10 µM. In the case of `Cc1n[nH]c(C(=O)Nc2cnc3[nH]c(-c4cccc(C(=O)N(C)C)c4)cc3c2)c1C` [P-2087, N-[2-[3-(dimethylcarbamoyl)phenyl]-1H-pyrrolo[2,3-b]pyridin-5-yl]-3,4-dimethyl-1H-pyrazole-5-carboxamide] it was < 10 µM. In the case of `Cc1n[nH]c(C(=O)Nc2cnc3[nH]c(-c4cccnc4)cc3c2)c1C` [P-2088, 3,4-dimethyl-N-[2-(3-pyridyl)-1H-pyrrolo[2,3-b]pyridin-5-yl]-1H-pyrazole-5-carboxamide] it was < 10 µM; in that of `Cc1n[nH]c(C(=O)Nc2cnc3[nH]c(-c4ccc(N5CCOCC5)nc4)cc3c2)c1C` [P-2089, 3,4-dimethyl-N-[2-(6-morpholino-3-pyridyl)-1H-pyrrolo[2,3-b]pyridin-5-yl]-1H-pyrazole-5-carboxamide], < 10 µM; in that of `COc1ccc(-c2cc3cc(NC(=O)c4[nH]nc(C)c4C)cnc3[nH]2)cn1` [P-2090, N-[2-(6-methoxy-3-pyridyl)-1H-pyrrolo[2,3-b]pyridin-5-yl]-3,4-dimethyl-1H-pyrazole-5-carboxamide], < 10 µM. Consider `Cc1ncc(-c2cc3cc(NC(=O)c4[nH]nc(C)c4C)cnc3[nH]2)s1` [P-2091, 3,4-dimethyl-N-[2-(2-methylthiazol-5-yl)-1H-pyrrolo[2,3-b]pyridin-5-yl]-1H-pyrazole-5-carboxamide], for which the IC50 is < 10 µM. To `Cc1n[nH]c(C(=O)Nc2cnc3[nH]c(-c4ccc(C#N)cc4)cc3c2)c1C` [P-2092, N-[2-(4-cyanophenyl)-1H-pyrrolo[2,3-b]pyridin-5-yl]-3,4-dimethyl-1H-pyrazole-5-carboxamide] belongs < 10 µM; to `Cc1n[nH]c(C(=O)Nc2cnc3[nH]c(-c4ccccc4F)cc3c2)c1C` [P-2093, N-[2-(2-fluorophenyl)-1H-pyrrolo[2,3-b]pyridin-5-yl]-3,4-dimethyl-1H-pyrazole-5-carboxamide], < 10 µM; to `Cc1n[nH]c(C(=O)Nc2cnc3[nH]c(-c4cccc(F)c4)cc3c2)c1C` [P-2094, N-[2-(3-fluorophenyl)-1H-pyrrolo[2,3-b]pyridin-5-yl]-3,4-dimethyl-1H-pyrazole-5-carboxamide], < 10 µM. Turning to `Cc1n[nH]c(C(=O)Nc2cnc3[nH]c(-c4cccc(Cl)c4)cc3c2)c1C` [P-2095, N-[2-(3-chlorophenyl)-1H-pyrrolo[2,3-b]pyridin-5-yl]-3,4-dimethyl-1H-pyrazole-5-carboxamide], the IC50 was < 10 µM. Regarding `Cc1n[nH]c(C(=O)Nc2cnc3[nH]c(-c4ccccc4Cl)cc3c2)c1C` [P-2096, N-[2-(2-chlorophenyl)-1H-pyrrolo[2,3-b]pyridin-5-yl]-3,4-dimethyl-1H-pyrazole-5-carboxamide], the IC50 was < 10 µM. With `Cc1ccccc1-c1cc2cc(NC(=O)c3[nH]nc(C)c3C)cnc2[nH]1` [P-2097, 3,4-dimethyl-N-[2-(o-tolyl)-1H-pyrrolo[2,3-b]pyridin-5-yl]-1H-pyrazole-5-carboxamide], the IC50 was < 10 µM. In the case of `COc1cccc(-c2cc3cc(NC(=O)c4[nH]nc(C)c4C)cnc3[nH]2)c1` [P-2098, N-[2-(3-methoxyphenyl)-1H-pyrrolo[2,3-b]pyridin-5-yl]-3,4-dimethyl-1H-pyrazole-5-carboxamide] it was < 10 µM; in that of `COc1ccc(-c2cc3cc(NC(=O)c4[nH]nc(C)c4C)cnc3[nH]2)cc1` [P-2099, N-[2-(4-methoxyphenyl)-1H-pyrrolo[2,3-b]pyridin-5-yl]-3,4-dimethyl-1H-pyrazole-5-carboxamide], < 10 µM; in that of `CC(=O)Nc1cccc(-c2cc3cc(NC(=O)c4[nH]nc(C)c4C)cnc3[nH]2)c1` [P-2100, N-[2-(3-acetamidophenyl)-1H-pyrrolo[2,3-b]pyridin-5-yl]-3,4-dimethyl-1H-pyrazole-5-carboxamide], < 10 µM.

What is called IC50 is the midpoint of a concentration-inhibition curve. A high value points to a need for much substance.
